Legend:
Type in all cases: physicochemical
[1] = Electrolyte tolerance: 40% AMS added into 10 g 0.13% tested chemical in DI water; conditions: for Appearance, added 40% AMS wt into 10 g 0.13% tested chemical in DI water: at 0 g AMS added, or at all additions (All); for Solubility / compatibility in water or AMS solution (in words): without 2,4-D amine
Procedure: (§1) In example 1, the electrolyte tolerance of 6 chemicals with and without the presence of 2,4-D amine was evaluated in ammonium sulfate system.

[2] = Solubility of tested chemical in DI water
Procedure: as §1

[3] = Appearance of 10 g solution of (2.5 wt % ai 2,4-D DMA + tested chemical) after adding 40% AMS; conditions: for 0 gram Appearance / Addition Weight of 40% AMS: System was clear after adding / Addition Weight of 40% AMS: System was cloud after adding: 0.13 wt % a.i. of tested chemical, 2.5 wt % ai 2,4-D DMA; for 0 gram Appearance: 0 gram 40% AMS; for Addition Weight of 40% AMS: System was clear after adding / Addition Weight of 40% AMS: System was cloud after adding: 10 g solution; for Added 40% AMS wt into 10 g (2.5% 2,4-D + 0.13% tested chemical in DI water), hazy / Added 40% AMS wt into 10 g (2.5% 2,4-D + 0.13% tested chemical in DI water), still clear: Table of Example 1; for Appearance, added 40% AMS wt into 10 g (2.5% 2,4-D + 0.13% tested chemical in DI water): at 0 g AMS added, or at all additions (All)
Procedure: In this example, the appearance of a 10 g solution of (2.5 wt % ai 2,4-D DMA+tested chemical) was evaluated after adding 40% AMS

[4] = Solubility of tested chemical in 40% AMS (ammonium sulfate)
Procedure: as §1

[5] = Crystal formation of 2,4-D in 1000 ppm hard water + AMS after post-adding surfactant; conditions: 0.069 g surfactant added to 3% 2,4-DMA (50%) + 90% water (1000 ppm hardness) + 7% AMS (40%), room temperature
Excerpt: FIG. 3 is a photograph illustrating the effect of various concentrations of cocoamine-2EO (“Coco-2”) and/or tallow-10EO (“Tallow-10”) on crystal formation of 2,4-D. (A) 0% Coco-2/0% Tallow-10. (B) 100% Coco-2/0% Tallow-10. (C) 45% Coco-2/55% Tallow-10. (D) 50% Coco-2/50% Tallow-10. (E) 55% Coco-2/45% Tallow-10.(F) 60% Coco-2/40% Tallow-10. (G) 0% Coco-2/100% Tallow-10.
In FIG. 3, sample (0:0) was 3% 2,4-DMA (50%)+90% water (1000 ppm hardness)+7% AMS (40%) and it readily formed crystals at room temperature.
The first sample, (0:0), on the left had no surfactant and it had about 15% crystal at the bottom. The rest of the samples had 0.069 g surfactant post-added to the first sample. […] Sample (0:100) was a little hazy with ˜5% crystal at bottom.

[6] = Compatibility of 2,4-D DMA premix with 28% N fertilizer (phase diagram, coarse particle formation)
Procedure: FIG. 2 is a photograph illustrating the effect of cocoamine-2EO methylchloride on coarse particle formation of 2,4-D ammonium salt. (A) 90% 28% N; 1% 2,4-D DMA; and 9% DI water. (B) 90% 28% N; 1% 2,4-D DMA; 5.5% DI water; and 3.5% Coco 2EO quat.
However, if 10% pre-mixed (8:2 water: 2,4-D DMA-50% ai) is added to 90% 28% N, a hazy system with coarse particles (2,4-D NH4 salt) will form in a few minutes at room temperature.

[7] = System appearance and pH after adding chemicals into System A
Excerpt: System appearance after adding various chemicals into “System A” which was 100 g of 3% 2,4-D DMA (50%)+90% water (1000 ppm)+7% Ammonium sulfate (40%).

[8] = added into 100 g System A, added wt 0.815 g Ethoquad, 0.079 g NH4OH, 0.091 g dimethylamine, 1.07 g NaOH

Solubility of tested chemical in DI Water [2]	Compatibility in 2,4-D amine and AMS solution (in words) [3]	0 gram Appearance [3]	Addition Weight of 40% AMS: System was clear after adding [3]	Addition Weight of 40% AMS: System was cloud after adding [3]	Added 40% AMS wt into 10 g (2.5% 2,4-D + 0.13% tested chemical in DI water), hazy [3]	Added 40% AMS wt into 10 g (2.5% 2,4-D + 0.13% tested chemical in DI water), still clear [3]	Appearance, added 40% AMS wt into 10 g (2.5% 2,4-D + 0.13% tested chemical in DI water) [3]	Solubility of testes chemical in 40% AMS [4]	Appearance of sample [5]	Spray solution obtained ([6]; 10% pre-mixed (8:2 Ethoquad C/12W-43.7%: 2,4-D DMA-50% ai) added to 90% 28% N)	pH change of System A (in words) [7]	Appearance [7, 8]	pH [7, 8]	Substance	Appearance, added 40% AMS wt into 10 g 0.13% tested chemical in DI water [1]	Solubility / compatibility in water or AMS solution (in words) [1]	Appearance of sample ([5]; listed as Sample (100:0))	Effect on formation of coarse particles of the 2,4-D ammonium salt ([6]; 28% N fertilizer, room temperature, FIG. 2)
<0.016%	very good compatibility	Clear	2.096 grams	2.264 grams	2.26 g	2.1 g	clear	<0.016%	hazy product without crystals	–	–	–	–	Cocoamine-2EO	All hazy	little compatibility	hazy sample with a little oily sediment at bottom	–
All clear	very good compatibility agent	Clear	2.21 grams	2.511 grams	2.51 g hazy	2.21 g	clear	All clear	–	non-nozzle plugging spray solution	only changed slightly	clear	5.2	Cocoamine-2EO methylchloride	All clear	excellent solubility in water and electrolyte tolerance	–	prevent or minimize the formation of coarse particles
